The results in this text go back to US12612360B2 (Sanofi, priority 2020, dated 2026).

The target in the experiment is T1, ERα (Homo sapiens, UniProt P03372).
T1 construct: host or cells: MCF7
T1 sequence (P03372 1-595): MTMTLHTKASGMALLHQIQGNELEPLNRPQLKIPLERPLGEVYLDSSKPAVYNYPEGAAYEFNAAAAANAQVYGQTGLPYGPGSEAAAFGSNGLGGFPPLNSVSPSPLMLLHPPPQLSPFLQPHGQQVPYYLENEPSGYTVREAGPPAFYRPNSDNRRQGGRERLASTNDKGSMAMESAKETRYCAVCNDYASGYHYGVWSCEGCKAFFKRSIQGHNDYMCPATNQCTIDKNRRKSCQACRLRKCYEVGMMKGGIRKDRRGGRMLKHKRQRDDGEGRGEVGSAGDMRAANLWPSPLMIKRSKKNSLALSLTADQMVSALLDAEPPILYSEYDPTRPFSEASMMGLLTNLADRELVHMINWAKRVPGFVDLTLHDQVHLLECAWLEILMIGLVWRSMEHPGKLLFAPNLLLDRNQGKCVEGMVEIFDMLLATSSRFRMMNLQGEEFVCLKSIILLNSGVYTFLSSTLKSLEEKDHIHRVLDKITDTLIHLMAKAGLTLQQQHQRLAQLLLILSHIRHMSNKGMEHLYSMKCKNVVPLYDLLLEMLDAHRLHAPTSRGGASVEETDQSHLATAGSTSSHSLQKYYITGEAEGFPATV
Briefly: Estrogen receptor degradation activity: breast cancer cell ERα in cell western assay (MCF7 cells). It is filed as cell-based. As to conditions: for % Degradation At 0.3 μM: 4 hours, relative to fulvestrant 0.1 μM positive control; for DC50: 4 hours post compound addition, concentration which degrades 50% of the estrogen receptor, read-out: Degradation IC50. In a few lines:
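In-cell western readout: ERα immunofluorescence (Alexa 488) normalised to DNA signal (Syto-64) after formalin fixation. Compounds dosed for 4 h on MCF7 cells in stripped-serum, phenol-red-free medium over nine 1:5 steps, 0.3 to […] final; fulvestrant 0.1 μM control. IC50 in nM for 50% ERα degradation.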

Regarding `Cc1cc(C=C2CN(CCCF)C2)cc(F)c1C1=C(c2ccc(Cl)cc2Cl)CCCc2cc(C(=O)O)ccc21.Cl` [Example 66, 8-(2,4-dichlorophenyl)-9-(2-fluoro-4-((1-(3-fluoropropyl)azetidin-3-ylidene)methyl)-6-methylphenyl)-6,7-dihydro-5H-benzo[7]annulene-3-carboxylic acid hydrochloride], the “% Degradation At 0.3 μM” value came out at 98% and the DC50 is 0.4 nM.
The like results for `Cc1cc(F)ccc1C1=C(c2ccc(C=C3CN(CCCF)C3)c(C)c2F)c2ccc(C(=O)O)cc2CCC1` [Example 67, 8-(4-fluoro-2-methylphenyl)-9-(2-fluoro-4-((1-(3-fluoropropyl)azetidin-3-ylidene)methyl)-3-methylphenyl)-6,7-dihydro-5H-benzo[7]annulene-3-carboxylic acid] were, in that order, 99% and 0.5 nM.
On to `Cc1cc(F)ccc1C1=C(c2c(F)cc(C=C3CN(CCCF)C3)cc2F)c2ccc(C(=O)O)cc2CCC1` [Example 68], for which the “% Degradation At 0.3 μM” value was found to be 96% and the DC50 is 0.3 nM.
The like results for `Cc1ccc(C2=C(c3ccc(C=C4CN(CCCF)C4)c(F)c3)c3ccc(C(=O)O)cc3CCC2)c(F)c1` [Example 69, 9-(3-fluoro-4-((1-(3-fluoropropyl)azetidin-3-ylidene)methyl)phenyl)-8-(2-fluoro-4-methylphenyl)-6,7-dihydro-5H-benzo[7]annulene-3-carboxylic acid] were, in that order, 94% and 0.5 nM.
`Cc1ccc(C2=C(c3ccc(C=C4CN(CCCF)C4)cc3)c3ccc(C(=O)O)cc3CCC2)c(C(F)(F)F)c1` [Example 70, 9-(4-((1-(3-fluoropropyl)azetidin-3-ylidene)methyl)phenyl)-8-(4-methyl-2-(trifluoromethyl)phenyl)-6,7-dihydro-5H-benzo[7]annulene-3-carboxylic acid]: the “% Degradation At 0.3 μM” value was 101% and the DC50 stood at 0.2 nM.
Turning to `Cc1cc(C2=C(c3ccc(Cl)cc3Cl)CCCc3cc(C(=O)O)ccc32)cc(F)c1C=C1CN(CCCF)C1.Cl` [Example 71, 8-(2,4-dichlorophenyl)-9-(3-fluoro-4-((1-(3-fluoropropyl)azetidin-3-ylidene)methyl)-5-methylphenyl)-6,7-dihydro-5H-benzo[7]annulene-3-carboxylic acid hydrochloride], the “% Degradation At 0.3 μM” value turned out to be 101% and the DC50 is 0.2 nM.
As to `Cc1c(Cl)cccc1C1=C(c2ccc(C=C3CN(CCCF)C3)cc2)c2ccc(C(=O)O)cc2CCC1` [Example 72, 8-(3-chloro-2-methylphenyl)-9-(4-((1-(3-fluoropropyl)azetidin-3-ylidene)methyl)phenyl)-6,7-dihydro-5H-benzo[7]annulene-3-carboxylic acid], the “% Degradation At 0.3 μM” value came out at 97% and the DC50 came out at 0.3 nM.
Regarding `O=C(O)c1ccc2c(c1)CCCC(c1ccc(Cl)cc1Cl)=C2c1c(F)cc(C=C2CN(CCCF)C2)cc1F` [Example 73, 8-(2,4-dichlorophenyl)-9-(2,6-difluoro-4-((1-(3-fluoropropyl)azetidin-3-ylidene)methyl)phenyl)-6,7-dihydro-5H-benzo[7]annulene-3-carboxylic acid], the “% Degradation At 0.3 μM” value was 98% and the DC50 is 0.3 nM.
Regarding `Cc1c(C=C2CN(CCCF)C2)ccc(C2=C(c3ccc(Cl)cc3Cl)CCCc3cc(C(=O)O)ccc32)c1F.Cl` [Example 74, 8-(2,4-dichlorophenyl)-9-(2-fluoro-4-((1-(3-fluoropropyl)azetidin-3-ylidene)methyl)-3-methylphenyl)-6,7-dihydro-5H-benzo[7]annulene-3-carboxylic acid hydrochloride], the “% Degradation At 0.3 μM” value is listed as 92% and the DC50 was determined as 0.5 nM.
`COc1ccc(C2=C(c3ccc(C=C4CN(CCCF)C4)cc3)c3ccc(C(=O)O)cc3CCC2)c(Cl)c1` [Example 75, 8-(2-chloro-4-methoxyphenyl)-9-(4-((1-(3-fluoropropyl)azetidin-3-ylidene)methyl)phenyl)-6,7-dihydro-5H-benzo[7]annulene-3-carboxylic acid]: the “% Degradation At 0.3 μM” value worked out at 92% and the DC50 came to 1.1 nM.
Consider `Cc1cccc(C2=C(c3ccc(C=C4CN(CCCF)C4)cc3)c3ccc(C(=O)O)cc3CCC2)c1Cl` [Example 76, 8-(2-chloro-3-methylphenyl)-9-(4-((1-(3-fluoropropyl)azetidin-3-ylidene)methyl)phenyl)-6,7-dihydro-5H-benzo[7]annulene-3-carboxylic acid], for which the “% Degradation At 0.3 μM” value is listed as 94% and the DC50 was found to be 0.5 nM.
For the compound `Cc1ccc(C2=C(c3ccc(C=C4CN(CCCF)C4)cc3)c3ccc(C(=O)O)cc3CCC2)c(C)c1` [Example 77, 8-(2,4-dimethylphenyl)-9-(4-((1-(3-fluoropropyl)azetidin-3-ylidene)methyl)phenyl)-6,7-dihydro-5H-benzo[7]annulene-3-carboxylic acid], the “% Degradation At 0.3 μM” value was determined as 92% and the DC50 amounted to 0.4 nM.
On the same counts, the results for `O=C(O)c1ccc2c(c1)CCCC(c1cccc(F)c1Cl)=C2c1ccc(C=C2CN(CCCF)C2)cc1` [Example 78, 8-(2-chloro-3-fluorophenyl)-9-(4-((1-(3-fluoropropyl)azetidin-3-ylidene)methyl)phenyl)-6,7-dihydro-5H-benzo[7]annulene-3-carboxylic acid] are 93% and 0.6 nM.
As for `O=C(O)c1ccc2c(c1)CCCC(c1ccc(F)cc1Cl)=C2c1ccc(C=C2CN(CCCF)C2)cc1` [Example 79, 8-(2-chloro-4-fluorophenyl)-9-(4-((1-(3-fluoropropyl)azetidin-3-ylidene)methyl)phenyl)-6,7-dihydro-5H-benzo[7]annulene-3-carboxylic acid], the “% Degradation At 0.3 μM” value worked out at 97% and the DC50 is 0.4 nM.
Consider `Cl.O=C(O)c1ccc2c(c1)CCCC(c1ccc(Cl)cc1Cl)=C2c1ccc(C=C2CN(CCCF)C2)c(F)c1F` [Example 80, 8-(2,4-dichlorophenyl)-9-(2,3-difluoro-4-((1-(3-fluoropropyl)azetidin-3-ylidene)methyl)phenyl)-6,7-dihydro-5H-benzo[7]annulene-3-carboxylic acid hydrochloride], for which the “% Degradation At 0.3 μM” value amounted to 98% and the DC50 is 0.6 nM.
On the same counts, the results for `Cc1c(C2=C(c3ccc(C=C4CN(CCCF)C4)cc3)c3ccc(C(=O)O)cc3CCC2)ccc(Cl)c1F` [Example 81, 8-(4-chloro-3-fluoro-2-methylphenyl)-9-(4-((1-(3-fluoropropyl)azetidin-3-ylidene)methyl)phenyl)-6,7-dihydro-5H-benzo[7]annulene-3-carboxylic acid] are 98% and 0.4 nM.
Turning to `Cc1c(Cl)ccc(C2=C(c3ccc(C=C4CN(CCCF)C4)cc3)c3ccc(C(=O)O)cc3CCC2)c1C` [Example 82, 8-(4-chloro-2,3-dimethylphenyl)-9-(4-((1-(3-fluoropropyl)azetidin-3-ylidene)methyl)phenyl)-6,7-dihydro-5H-benzo[7]annulene-3-carboxylic acid], the “% Degradation At 0.3 μM” value came to 90% and the DC50 is 0.5 nM.
As for `Cc1cc(Cl)cc(C)c1C1=C(c2ccc(C=C3CN(CCCF)C3)cc2)c2ccc(C(=O)O)cc2CCC1` [Example 83, 8-(4-chloro-2,6-dimethylphenyl)-9-(4-((1-(3-fluoropropyl)azetidin-3-ylidene)methyl)phenyl)-6,7-dihydro-5H-benzo[7]annulene-3-carboxylic acid], the “% Degradation At 0.3 μM” value is 93% and the DC50 was found to be 0.4 nM.
Take `Cc1cc(C#N)ccc1C1=C(c2ccc(C=C3CN(CCCF)C3)cc2)c2ccc(C(=O)O)cc2CCC1` [Example 84, 8-(4-cyano-2-methylphenyl)-9-(4-((1-(3-fluoropropyl)azetidin-3-ylidene)methyl)phenyl)-6,7-dihydro-5H-benzo[7]annulene-3-carboxylic acid]: the “% Degradation At 0.3 μM” value came out at 92% and the DC50 stood at 2.1 nM.
As for `Cc1c(F)cccc1C1=C(c2ccc(C=C3CN(CCCF)C3)cc2)c2ccc(C(=O)O)cc2CCC1` [Example 85, 8-(3-fluoro-2-methylphenyl)-9-(4-((1-(3-fluoropropyl)azetidin-3-ylidene)methyl)phenyl)-6,7-dihydro-5H-benzo[7]annulene-3-carboxylic acid], the “% Degradation At 0.3 μM” value came to 94% and the DC50 came out at 0.2 nM.
Take `CCc1ccccc1C1=C(c2ccc(C=C3CN(CCCF)C3)cc2)c2ccc(C(=O)O)cc2CCC1` [Example 86, 8-(2-ethylphenyl)-9-(4-((1-(3-fluoropropyl)azetidin-3-ylidene)methyl)phenyl)-6,7-dihydro-5H-benzo[7]annulene-3-carboxylic acid]: the “% Degradation At 0.3 μM” value turned out to be 92% and the DC50 came out at 0.2 nM.
